Measured values published in PubChem BioAssay AID2060894 (Molecular Pharmacology Branch, DTP, NCI, 2025).

System: K12877-001-R-J1-PDC complex spheroid viability
Test: Anticancer human tumor K12877-001-R-J1-PDC patient-derived lung adenocarcinoma cell line growth inhibition [RAS]
Conditions: for IC50: curve of first compound; for viability, T/C: stronger effect = lower value
Procedure, shortened: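 Agents were tested in combination matrices in half-log decrements from a top concentration at or near clinical Cmax (10 microM if undetermined). Targets were multi-cell spheroids of tumour lines plus HUVEC and MSC stromal cells.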

[1] = second compound 0.000949 µM, first compound 0.0316 µM
[2] = second compound 0.000949 µM, first compound 0.1 µM
[3] = second compound 0.000949 µM, first compound 0.316 µM
[4] = second compound 0.000949 µM, first compound 1 µM
[5] = second compound 0.000949 µM, first compound 3.16 µM
[6] = second compound 0.000949 µM, first compound 10 µM
[7] = second compound 0.003 µM, first compound 0.0316 µM
[8] = second compound 0.003 µM, first compound 0.1 µM
[9] = second compound 0.003 µM, first compound 0.316 µM
[10] = second compound 0.003 µM, first compound 1 µM
[11] = second compound 0.003 µM, first compound 3.16 µM
[12] = second compound 0.003 µM, first compound 10 µM
[13] = second compound 0.00949 µM, first compound 0.0316 µM
[14] = second compound 0.00949 µM, first compound 0.1 µM
[15] = second compound 0.00949 µM, first compound 0.316 µM
[16] = second compound 0.00949 µM, first compound 1 µM
[17] = second compound 0.00949 µM, first compound 3.16 µM
[18] = second compound 0.00949 µM, first compound 10 µM
[19] = second compound 0.03 µM, first compound 0.0316 µM
[20] = second compound 0.03 µM, first compound 0.1 µM
[21] = second compound 0.03 µM, first compound 0.316 µM
[22] = second compound 0.03 µM, first compound 1 µM
[23] = second compound 0.03 µM, first compound 3.16 µM
[24] = second compound 0.03 µM, first compound 10 µM
[25] = second compound 0.0949 µM, first compound 0.0316 µM
[26] = second compound 0.0949 µM, first compound 0.1 µM
[27] = second compound 0.0949 µM, first compound 0.316 µM
[28] = second compound 0.0949 µM, first compound 1 µM
[29] = second compound 0.0949 µM, first compound 3.16 µM
[30] = second compound 0.0949 µM, first compound 10 µM
[31] = second compound 0.3 µM, first compound 0.0316 µM
[32] = second compound 0.3 µM, first compound 0.1 µM
[33] = second compound 0.3 µM, first compound 0.316 µM
[34] = second compound 0.3 µM, first compound 1 µM
[35] = second compound 0.3 µM, first compound 3.16 µM
[36] = second compound 0.3 µM, first compound 10 µM
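Also: spheroids exposed to agents for one week before readout.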
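For viability, T/C in this document: tumour cells co-cultured with HUVEC and mesenchymal stem cells in spheroids.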

**Q.** How did the IC50 (second compound 0.000949 µM) turn out when CC1(O)CCCC1n1c(=O)c(C(F)F)cc2cnc(NC3CCN(S(C)(=O)=O)CC3)nc21 (centres undefined) + CCn1c(-c2cccnc2C(C)OC)c2c3cc(ccc31)N1CCOC(CC(NC(=O)C(C(C)C)N(C)C(=O)C3(F)CCN(C(=O)C#CC(C)(C)N(C)C)CC3)C(=O)N3CCCC(N3)C(=O)OCC(C)(C)C2)C1 was run?
**A.** 202 nM

**Q.** And the IC50 (second compound 0.003 µM)?
**A.** 126 nM

**Q.** And the IC50 (second compound 0.00949 µM)?
**A.** 134 nM

**Q.** And the IC50 (second compound 0.03 µM)?
**A.** 107 nM

**Q.** And the IC50 (second compound 0.0949 µM)?
**A.** 80.8 nM

**Q.** And the IC50 (second compound 0.3 µM)?
**A.** 97.9 nM

**Q.** And the viability, T/C [1]?
**A.** 89.8%

**Q.** What about the viability, T/C [2] of the same molecule?
**A.** 61.3%

**Q.** And the viability, T/C [3]?
**A.** 31.9%

**Q.** And the viability, T/C [4]?
**A.** 38.7%

**Q.** What about the viability, T/C [5] of the same molecule?
**A.** 23.8%

**Q.** And the viability, T/C [6]?
**A.** 2.35%

**Q.** And the viability, T/C [7]?
**A.** 76%

**Q.** And the viability, T/C [8]?
**A.** 46.7%

**Q.** What about the viability, T/C [9] of the same molecule?
**A.** 31.2%

**Q.** What about the viability, T/C [10] of the same molecule?
**A.** 34.5%

**Q.** What about the viability, T/C [11] of the same molecule?
**A.** 21.3%

**Q.** What about the viability, T/C [12] of the same molecule?
**A.** 2.96%

**Q.** What about the viability, T/C [13] of the same molecule?
**A.** 71.9%

**Q.** And the viability, T/C [14]?
**A.** 43.5%

**Q.** And the viability, T/C [15]?
**A.** 33.3%

**Q.** What about the viability, T/C [16] of the same molecule?
**A.** 36.8%

**Q.** And the viability, T/C [17]?
**A.** 33.7%

**Q.** What about the viability, T/C [18] of the same molecule?
**A.** 2.22%

**Q.** And the viability, T/C [19]?
**A.** 66.2%

**Q.** And the viability, T/C [20]?
**A.** 45.8%

**Q.** What about the viability, T/C [21] of the same molecule?
**A.** 32.1%

**Q.** What about the viability, T/C [22] of the same molecule?
**A.** 34.5%

**Q.** And the viability, T/C [23]?
**A.** 27.8%

**Q.** What about the viability, T/C [24] of the same molecule?
**A.** 2.85%

**Q.** What about the viability, T/C [25] of the same molecule?
**A.** 55.7%

**Q.** What about the viability, T/C [26] of the same molecule?
**A.** 56.5%

**Q.** And the viability, T/C [27]?
**A.** 27.5%

**Q.** What about the viability, T/C [28] of the same molecule?
**A.** 27.9%

**Q.** And the viability, T/C [29]?
**A.** 33.9%

**Q.** And the viability, T/C [30]?
**A.** 2.46%

**Q.** And the viability, T/C [31]?
**A.** 68.5%

**Q.** What about the viability, T/C [32] of the same molecule?
**A.** 51.2%

**Q.** And the viability, T/C [33]?
**A.** 27.1%

**Q.** What about the viability, T/C [34] of the same molecule?
**A.** 25.7%

**Q.** And the viability, T/C [35]?
**A.** 20.3%

**Q.** And the viability, T/C [36]?
**A.** 2.35%

**Q.** How did the IC50 (second compound 0.000949 µM) turn out when CCC(CC)c1cc(NC2CCC(N)C2)n2nccc2n1 (centres undefined) + CCn1c(-c2cccnc2C(C)OC)c2c3cc(ccc31)N1CCOC(CC(NC(=O)C(C(C)C)N(C)C(=O)C3(F)CCN(C(=O)C#CC(C)(C)N(C)C)CC3)C(=O)N3CCCC(N3)C(=O)OCC(C)(C)C2)C1 was run?
**A.** 1300 nM

**Q.** What about the IC50 (second compound 0.003 µM) of the same molecule?
**A.** 1020 nM

**Q.** And the IC50 (second compound 0.00949 µM)?
**A.** 877 nM

**Q.** And the IC50 (second compound 0.03 µM)?
**A.** 903 nM

**Q.** What about the IC50 (second compound 0.0949 µM) of the same molecule?
**A.** 808 nM

**Q.** And the IC50 (second compound 0.3 µM)?
**A.** 508 nM

**Q.** And the viability, T/C [1]?
**A.** 78.9%

**Q.** What about the viability, T/C [2] of the same molecule?
**A.** 83.2%

**Q.** And the viability, T/C [3]?
**A.** 80.2%

**Q.** And the viability, T/C [4]?
**A.** 64.3%

**Q.** And the viability, T/C [5]?
**A.** 1.95%

**Q.** What about the viability, T/C [6] of the same molecule?
**A.** 0.98%

**Q.** And the viability, T/C [7]?
**A.** 72%

**Q.** And the viability, T/C [8]?
**A.** 85.8%

**Q.** What about the viability, T/C [9] of the same molecule?
**A.** 72.8%

**Q.** And the viability, T/C [10]?
**A.** 51%

**Q.** What about the viability, T/C [11] of the same molecule?
**A.** 1.27%

**Q.** What about the viability, T/C [12] of the same molecule?
**A.** 1.35%

**Q.** What about the viability, T/C [13] of the same molecule?
**A.** 85.2%

**Q.** And the viability, T/C [14]?
**A.** 70.9%

**Q.** And the viability, T/C [15]?
**A.** 69.5%

**Q.** And the viability, T/C [16]?
**A.** 48%

**Q.** What about the viability, T/C [17] of the same molecule?
**A.** 1.95%

**Q.** And the viability, T/C [18]?
**A.** 0.75%

**Q.** And the viability, T/C [19]?
**A.** 74%

**Q.** And the viability, T/C [20]?
**A.** 70.5%

**Q.** What about the viability, T/C [21] of the same molecule?
**A.** 69.2%

**Q.** What about the viability, T/C [22] of the same molecule?
**A.** 48%

**Q.** What about the viability, T/C [23] of the same molecule?
**A.** 1.63%

**Q.** And the viability, T/C [24]?
**A.** 1.21%

**Q.** And the viability, T/C [25]?
**A.** 83.6%

**Q.** What about the viability, T/C [26] of the same molecule?
**A.** 70.2%

**Q.** What about the viability, T/C [27] of the same molecule?
**A.** 75%

**Q.** And the viability, T/C [28]?
**A.** 44.2%

**Q.** And the viability, T/C [29]?
**A.** 1.61%

**Q.** What about the viability, T/C [30] of the same molecule?
**A.** 1.11%

**Q.** What about the viability, T/C [31] of the same molecule?
**A.** 76.8%

**Q.** What about the viability, T/C [32] of the same molecule?
**A.** 69.9%

**Q.** What about the viability, T/C [33] of the same molecule?
**A.** 61.7%

**Q.** What about the viability, T/C [34] of the same molecule?
**A.** 33.5%

**Q.** And the viability, T/C [35]?
**A.** 1.98%

**Q.** And the viability, T/C [36]?
**A.** 0.91%
